From US8273775B2, “Non-steroidal brassinosteroid mimetic” (priority 2006, dated 2012)

Tests used:
[1] = system: Arabidopsis thaliana seedlings; test: Lateral root formation / root elongation of seedlings on agar plates; type: in vivo; settings: Arabidopsis thaliana; read-out: root elongation and lateral root development inhibited, EC50-value
Procedure: FIG. 3: (A) Phenotypic characterization. WT plants were grown under standard conditions on agar plates. […] Left panel: control plant. Middle panel: abrasin treated plant. Right panel: BL treated plant. (B) Dose response measurements of abrasin using lateral root formation as an indicator of brassinosteroid like activity. Error bars represent standard error of the mean. […] Osram) at 22° C. Three days after germination compounds were added to the 96-well plates at a final concentration of 50 μM. Plants were screened six days after germination for brassinosteroid-related phenotypes. For further phenotypical analysis, all plants were grown on vertically oriented square plates (Greiner Labortechnik, Austria) with solid medium derived from standard Murashige and Skoog medium under the same conditions. For the hypocotyl-elongation assay, plants were grown in the dark at 22° C. under the same conditions.

[2] = system: cpd, det2-1, bri1-116 and bri1-301 mutants; test: Hypocotyl-elongation assay of dark-grown BR mutants; type: in vivo, Arabidopsis thaliana; settings: grown in the dark, 50 μM abrasin
Procedure: FIG. 6: Rescue of dark-grown BL mutants after treatment with 50 μM of abrasin (I5).
For further phenotypical analysis, all plants were grown on vertically oriented square plates (Greiner Labortechnik, Austria) with solid medium derived from standard Murashige and Skoog medium under the same conditions. For the hypocotyl-elongation assay, plants were grown in the dark at 22° C. under the same conditions.

BIN2 kinase = biological target: T1, BIN2 kinase (Arabidopsis thaliana, UniProt Q39011); test: In vitro kinase assay GST-BIN2 with MBP-BES1; type: biochemical
T1 sequence (Q39011 1-380): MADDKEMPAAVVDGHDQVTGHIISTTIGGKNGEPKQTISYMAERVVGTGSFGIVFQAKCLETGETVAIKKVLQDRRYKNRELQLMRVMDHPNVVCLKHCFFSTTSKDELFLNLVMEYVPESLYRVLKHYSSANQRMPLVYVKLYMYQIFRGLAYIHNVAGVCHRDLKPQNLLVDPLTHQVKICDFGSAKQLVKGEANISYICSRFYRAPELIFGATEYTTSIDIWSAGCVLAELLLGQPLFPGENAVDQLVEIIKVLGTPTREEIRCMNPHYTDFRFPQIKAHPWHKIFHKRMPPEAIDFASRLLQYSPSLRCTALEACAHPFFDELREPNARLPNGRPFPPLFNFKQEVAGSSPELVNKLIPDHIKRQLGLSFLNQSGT
Procedure: (§1) Coomassie staining was used as a loading control. b, Autoradiography of kinase assays with nine ASKs with MBP as a substrate in the presence or absence of 10 μM abrasin. The second member of group IV, ASKκ, had no kinase activity and was not included in the analysis. c, Autoradiography of kinase assays with AtMPK4, AtMPK6 and MBP as a substrate (left) and with AtAUR1 kinase and histone H3 as a substrate (right) in the presence or absence of 10 μM abrasin.
(§2) For in vitro kinase assays, MBP, MBP-BES1, and MBP-bes1 (20 ng each) were incubated with GST-BIN2 or GST-BRI1 kinase (200 ng each) in 20 μl of kinase buffer (20 mM Tris [pH 7.5], 100 mM NaCl, and 12 mM MgCl2) and 10 μCi ^32P-γATP. After incubation at 37° C. for 40 min, the reactions were stopped by adding 20 μl of 2×SDS buffer and boiling at 94° C. for 5 min. Proteins were resolved by a PAGE gel and phosphorylation was detected by exposing the dried gel to X-ray film. Proteins from 35S::bes1-GFP transgenic plants were used for phosphatase (CIP) treatments as described (Fankhauser et al., 1999).

GST-BIN2 = biological target: T2, GST-BIN2 (Arabidopsis thaliana, UniProt Q39011); test: SPR analysis of binding to immobilized GST-BIN2
T2 sequence (Q39011 1-380): T1 sequence (Q39011 1-380)
Procedure: FIG. 13: Abrasin directly interacts with BIN2. SPR sensorgrams for abrasin binding to GST-BIN2 after injection of different abrasin concentrations as indicated. […] Reference and blank data are subtracted. The experiment was performed in triplicate. Biacore T100 was used to analyze interaction of abrasion with BIN2. Using amine coupling, purified GST-BIN2 was immobilized in the flow cell of a Series S CM5 Sensor Chip (Research Grade, Biacore AB). HBS-EP (Biacore AB) was used as running buffer, flow rate was set at 5 μl/min. The surface of the chip was activated by injecting a mixture of EDC (0.2 M) and NHS (0.05 M) for 10 min. Subsequently, 20 μg/ml GST-BIN2 in 10 mM sodium acetate buffer (pH 6.0) was injected for 20 min. The immobilization level of GST-BIN2 was≈20,000 RU. The chip was then flushed with 1 M ethanolamine (pH 8.5) for 10 min to deactivate the surface. A flow cell treated with a cycle of activation and deactivation without immobilized ligand was used as a reference. […] Different concentrations of abrasin were injected at a flow rate of 30 μl/min over the reference and the GST-BIN2 flow cell for 90 s, followed by 180 s of buffer flow (dissociation phase). Zero concentration samples were used as blanks. The flow cell temperature was set to 25° C.

[3] = system: group I GSK-3 kinases (ASKs); test: ASK kinase assay with MBP as substrate, group I; type: biochemical, Arabidopsis; settings: 10 μM abrasin
Procedure: as §1
as §2, with “Proteins from 35S::bes1-GFP transgenic plants were used for phosphatase (CIP) treatments as described (Fankhauser et al., 1999).” left out
(§3) Besides BIN2, nine additional GSK-3 kinases (also designated ASKs for Arabidopsis SHAGGY-related kinases) divided into four subgroups (I-IV) have been identified in Arabidopsis (Jonak and Hirt, 2002; Yoo et al. 2006). To determine the specificity of abrasin, its effect on the kinase activity of all ASKs was analyzed with myelin basic protein (MBP) as a general substrate. […]

AtMPK6 = AtMPK6 (Arabidopsis thaliana, UniProt Q39026); test: Kinase assay with AtMPK6 and MBP as substrate; type: biochemical; settings: 10 μM abrasin
Procedure: as §1
as §2, with “Proteins from 35S::bes1-GFP transgenic plants were used for phosphatase (CIP) treatments as described (Fankhauser et al., 1999).” left out
as §3

AtAUR1 = biological target: T3, AtAUR1 (Arabidopsis thaliana, UniProt Q9M077); test: Kinase assay with AtAUR1 and histone H3 as substrate; type: biochemical; settings: 10 μM abrasin
T3 sequence (Q9M077 1-294): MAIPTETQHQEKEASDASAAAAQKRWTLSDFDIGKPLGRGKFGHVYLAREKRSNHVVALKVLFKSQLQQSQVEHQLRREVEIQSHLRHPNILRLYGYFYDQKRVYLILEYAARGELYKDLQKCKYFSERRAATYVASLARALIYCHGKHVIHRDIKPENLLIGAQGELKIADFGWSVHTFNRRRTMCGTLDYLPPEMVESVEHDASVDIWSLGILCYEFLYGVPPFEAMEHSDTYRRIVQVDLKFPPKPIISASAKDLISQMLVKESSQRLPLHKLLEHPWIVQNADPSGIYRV
Procedure: as §1
as §2, with “Proteins from 35S::bes1-GFP transgenic plants were used for phosphatase (CIP) treatments as described (Fankhauser et al., 1999).” left out
as §3

Chain of AtMPK6 (Q39026 whole entry): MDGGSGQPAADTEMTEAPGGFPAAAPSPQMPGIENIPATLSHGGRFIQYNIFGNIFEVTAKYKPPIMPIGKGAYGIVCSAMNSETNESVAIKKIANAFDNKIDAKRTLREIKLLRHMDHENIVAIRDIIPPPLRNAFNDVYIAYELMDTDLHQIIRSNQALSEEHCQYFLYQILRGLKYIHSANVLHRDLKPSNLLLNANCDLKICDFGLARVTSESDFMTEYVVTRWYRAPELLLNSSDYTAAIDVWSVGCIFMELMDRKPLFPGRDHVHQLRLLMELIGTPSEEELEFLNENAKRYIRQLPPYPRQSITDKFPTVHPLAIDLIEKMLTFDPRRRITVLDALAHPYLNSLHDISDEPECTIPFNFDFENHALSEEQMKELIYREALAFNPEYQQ

## O=C(O)CCC(=O)Nc1ccc(Br)cn1 [abrasin, 4-[(5-bromo-2-pyridinyl)amino]-4-oxobutanoic acid]
[1]
  EC50: 20 µM
[2]
  hypocotyl length of dark-grown mutants: all mutant lines had hypocotyls of normal length
BIN2 kinase
  concentration at which inhibitory effect was already apparent: lower than 2.5 μM
BIN2 kinase; 0 to 10 μM
  BIN2 kinase activity towards its substrate BES1: strongly reduced BIN2 kinase activity towards its substrate BES1 in a dose-dependent manner
BIN2 kinase; at 10 μM
  inhibitory effect on BIN2 kinase activity: dramatic
GST-BIN2
  concentration from which a clear SPR response starts: ≥ 10 µM
GST-BIN2; 1:1 interaction model, 25° C.
  Kd: 199 µM
  kd: 0.081 s⁻¹
GST-BIN2; 1:1 interaction model, 25° C., read-out: ka
  kon: 407 M⁻¹ s⁻¹
[3]
  residual activity: 6-8%
AtMPK6
  effect on kinase activity: no effect
AtAUR1
  effect on kinase activity: no effect
